One series relates to HIV. The experiment in a line: Antiviral activity: inhibition of the cytopathic effect of HIV in MT4 cells. It counts as cell-based. Particulars: MT4 cells; 50% inhibition of the cytopathic effect of HIV; read-out: EC50. The text has this: (§1) The IC50 is the concentration of compound that gives 50% inhibition of the cytopathic effect of HIV. The LC50 is the concentration of compound at which 50% of the cells remain viable.

For another series, the system named is MT4 cells. The experiment in a line: Cytotoxicity in MT4 cells (LC50, 50% of the cells remain viable). Type of series: cell-based. Particulars: MT4 cells; concentration at which 50% of the cells remain viable.
Description: as §1

For the next series, the target named is HIV-1 protease (Human immunodeficiency virus type 1 group M subtype B, UniProt P04585). The experiment in a line: Fluorogenic assay for screening inhibitors of HIV protease. Conditions: compound concentration 0.5 nM; fluorogenic substrate 1.3 μM, pH 4.5, 30° C.

Description for HIV-1 protease: A compound of the invention is dissolved in DMSO. A small aliquot is diluted with DMSO to 100 times the final concentration desired for testing. The test is carried out in a 6×50 mm tube in a total volume of 300 microliters. The final concentrations of the components in the reaction buffer are: 125 mM sodium acetate, 1 M sodium chloride, 5 mM dithiothreitol, 0.5 mg/ml bovine serum albumin, 1.3 μM fluorogenic substrate, 2% (v/v) dimethylsulfoxide, pH 4.5. After addition of inhibitor, the reaction mixture is placed in the fluorometer cell holder and incubated at 30° C. for several minutes. The reaction is initiated by the addition of a small aliquot of cold HIV protease. The fluorescence intensity (excitation 340 nm, emmision 490 nM) is recorded as a function of time. The reaction rate is determined for the first six to eight minutes. The observed rate is directly proportional to the moles of substrate cleaved per unit time. The percent inhibition is 100×(1- (rate in presence of inhibitor)/(rate in absence of inhibitor)).
The test compounds were then tested at a concentration of 0.5 nM.

Regarding “2-(1-Methylethyl)-4-thiazolylmethyl-(1S)-1-[[[(1S,2R)-3-[[(4-aminophenyl)sulfonyl](1-methylethyl)amino]-2-hydroxy-1-(phenylmethyl)propyl]amino]carbonyl]-2-methylpropyl]carbamate [Example 28]”, the EC50 with HIV was found to be 0.011 µM. The same molecule returned a CC50 with MT4 cells of 49.5 µM. The “% Inhib. (0.5 nM)” value at HIV-1 protease is recorded as 77%.
With “2-(1-Methylethyl)-4-thiazolylmethyl-[(1S)-1-[[[(1S,2R)-3-[(2S)-2-[[(1,1-dimethylethyl)amino]carbonyl]-4-(5-thienylmethyl)-1-piperazinyl]-2-hydroxy-1-(phenylmethyl)propyl]amino]carbonyl]-2-methylpropyl]carbamate [Example 4]”, the EC50 in the series with HIV is 0.012 µM. The same molecule came in with a half-maximal cytotoxic concentration (CC50) with MT4 cells of 69 µM. The “% Inhib. (0.5 nM)” value on HIV-1 protease amounted to 67%.
For the molecule “2-(1-Methylethyl)-4-thiazolylmethyl-[(1S)-1-[[[(1S,2R)-3-[[[(1,1-dimethylethyl)amino]carbonyl](2-methylethyl)propylamino]-2-hydroxy-1-(phenylmethyl)propyl]amino]carbonyl]-2-methylpropyl]carbamate [Example 27]”, the EC50 in the series on HIV was 0.374 µM. In addition, in the series with MT4 cells, the CC50 stood at 20.6 µM. For the same molecule, the “% Inhib. (0.5 nM)” value on HIV-1 protease is recorded as 50%.
Consider “5-Thiazolylmethyl-[(1S)-1-[[[(1S,2R)-3-[(2S)-2-[[(1,1-dimethylethyl)amino]carbonyl]-4-(phenylmethyl)-1-piperazinyl]-2-hydroxy-1-(phenylmethyl)propyl]amino]carbonyl]-2-methylpropyl]carbamate [Example 24]”, for which, in the series with HIV, the EC50 is 0.017 µM. In the series on MT4 cells, this molecule registered a CC50 of 55.4 µM. In addition, on HIV-1 protease, the “% Inhib. (0.5 nM)” value was 40%.
`CC(C)c1nc(COC(=O)N[C@H](C(=O)N[C@@H](Cc2ccccc2)[C@H](O)CN2CCN(Cc3ccc4c(c3)OCO4)C[C@H]2C(=O)NC(C)(C)C)C(C)C)cs1` [Example 1, 2-(1-Methylethyl)-4-thiazolylmethyl-[(1S)-1-[[[(1S,2R)-3-[(2S)-4-(1,3-benzodioxol-5-ylmethyl)-2-[[(1,1-dimethylethyl)amino]carbonyl]-1-piperazinyl]-2-hydroxy-1-(phenylmethyl)propyl]amino]carbonyl]-2-methylpropyl]carbamate]: in the series on HIV, the EC50 is 0.003 µM. In addition, in the series on MT4 cells, half-maximal cytotoxicity (CC50) was put at 12.8 µM. On HIV-1 protease, the “% Inhib. (0.5 nM)” value turned out to be 60%.
For `CC(C)c1nc(COC(=O)N[C@H](C(=O)N[C@@H](Cc2ccccc2)[C@H](O)CN2CCN(Cc3ccccc3)C[C@H]2C(=O)NC(C)(C)C)C(C)C)cs1` [Example 2, 2-(1-Methylethyl)-4-thiazolylmethyl-[(1S)-1-[[[(1S,2R)-3-[(2S)-2-[[(1,1-dimethylethyl)amino]carbonyl]-4-(phenylmethyl)-1-piperazinyl]-2-hydroxy-1-(phenylmethyl)propyl]amino]carbonyl]-2-methylpropyl]carbamate], in that order: 0.022 µM, 47.1 µM and 66%.
Turning to `CC(C)c1nc(COC(=O)N[C@H](C(=O)N[C@@H](Cc2ccccc2)[C@H](O)CN2CCN(Cc3ccc(F)cc3)C[C@H]2C(=O)NC(C)(C)C)C(C)C)cs1` [Example 3], the EC50 in the series on HIV was 0.021 µM. Moreover, in the series on MT4 cells, the cytotoxic concentration (CC50) turned out to be 15.7 µM. At HIV-1 protease, the “% Inhib. (0.5 nM)” value was determined as 64%.
As to `CC(C)c1nc(COC(=O)N[C@H](C(=O)N[C@@H](Cc2ccccc2)[C@H](O)CN2CCN(Cc3cccc(O)c3)C[C@H]2C(=O)NC(C)(C)C)C(C)C)cs1` [Example 5, 2-(1-Methylethyl)-4-thiazolylmethyl-[(1S)-1-[[[(1S,2R)-3-[(2S)-2-[[(1,1-dimethylethyl)amino]carbonyl]-4-[4-(3-hydroxyphenyl)methyl]-1-piperazinyl]-2-hydroxy-1-(phenylmethyl)propyl]amino]carbonyl]-2-methylpropyl]carbamate], in the series on HIV, the EC50 worked out at 0.04 µM. In the series with MT4 cells, the midpoint of cytotoxicity, the CC50, lay at 16.7 µM. Further, the “% Inhib. (0.5 nM)” value at HIV-1 protease is reported as 69%.
With `CC(C)c1nc(COC(=O)N[C@H](C(=O)N[C@@H](Cc2ccccc2)[C@H](O)CN2CCN(Cc3cccnc3)C[C@H]2C(=O)NC(C)(C)C)C(C)C)cs1` [Example 6, 2-(1-Methylethyl)-4-thiazolylmethyl-[(1S)-1-[[[(1S,2R)-3-[(2S)-2-[[(1,1-dimethylethyl)amino]carbonyl]-4-(3-pyridinylmethyl)-1-piperazinyl]-2-hydroxy-1-(phenylmethyl)propyl]amino]carbonyl]-2-methylpropyl]carbamate], the EC50 in the series with HIV is 0.012 µM. For the same molecule, it took 58.6 µM to reach half-maximal cytotoxicity in the series with MT4 cells (CC50). Moreover, the “% Inhib. (0.5 nM)” value on HIV-1 protease is 60%.
Turning to `CC(C)c1nc(COC(=O)N[C@H](C(=O)N[C@@H](Cc2ccccc2)[C@H](O)CN2CCN(Cc3ccncc3)C[C@H]2C(=O)NC(C)(C)C)C(C)C)cs1` [Example 7, 2-(1-Methylethyl)-4-thiazolylmethyl-[(1S)-1-[[[(1S,2R)-3-[(2S)-2-[[(1,1-dimethylethyl)amino]carbonyl]-4-(4-pyridinylmethyl)-1-piperazinyl]-2-hydroxy-1-(phenylmethyl)propyl]amino]carbonyl]-2-methylpropyl]carbamate], the concentration for a half-maximal effect (EC50) in the series on HIV was 0.017 µM. In the series with MT4 cells, this molecule came in with a CC50 of 55.2 µM. On HIV-1 protease, the “% Inhib. (0.5 nM)” value came out at 73%.
For the molecule `CC(C)c1nc(COC(=O)N[C@H](C(=O)N[C@@H](Cc2ccccc2)[C@H](O)CN2CCN(Cc3ccc(O)cc3)C[C@H]2C(=O)NC(C)(C)C)C(C)C)cs1` [Example 8, 2-(1-Methylethyl)-4-thiazolylmethyl-[(1S)-1-[[[(1S,2R)-3-[(2S)-2-[[(1,1-dimethylethyl)amino]carbonyl]-4-[(4-hydroxyphenyl)methyl]-1-piperazinyl]-2-hydroxy-1-(phenylmethyl)propyl]amino]carbonyl]-2-methylpropyl]carbamate], in the series on HIV, the EC50 was 0.047 µM. In addition, it took 18.9 µM to reach half-maximal cytotoxicity with MT4 cells (CC50). Besides, the “% Inhib. (0.5 nM)” value on HIV-1 protease was found to be 54%.
For `CC(C)c1nc(COC(=O)N[C@H](C(=O)N[C@@H](Cc2ccccc2)[C@H](O)CN2CCN(Cc3nc4ccccc4[nH]3)C[C@H]2C(=O)NC(C)(C)C)C(C)C)cs1` [Example 9], in that order: 0.046 µM, 18.4 µM and 65%.
With `CC(C)c1nc(COC(=O)N[C@H](C(=O)N[C@@H](Cc2ccccc2)[C@H](O)CN2CCN(Cc3ccc4ccccc4n3)C[C@H]2C(=O)NC(C)(C)C)C(C)C)cs1` [Example 10, 2-(1-Methylethyl)-4-thiazolylmethyl-[(1S)-1-[[[(1S,2R)-3-[(2S)-2-[[(1,1-dimethylethyl)amino]carbonyl]-4-(2-quinolinylmethyl)-1-piperazinyl]-2-hydroxy-1-(phenylmethyl)propyl]amino]carbonyl]-2-methylpropyl]carbamate], the EC50 with HIV is 0.014 µM. The same molecule came in with a cytotoxic concentration (CC50) with MT4 cells of 18.2 µM. Also, the “% Inhib. (0.5 nM)” value on HIV-1 protease is recorded as 70%.
On the same counts, the results for `COc1ccc(CN2CCN(C[C@@H](O)[C@H](Cc3ccccc3)NC(=O)[C@@H](NC(=O)OCc3csc(C(C)C)n3)C(C)C)[C@H](C(=O)NC(C)(C)C)C2)cc1OC` [Example 11, 2-(1-Methylethyl)-4-thiazolylmethyl[(1S)-1-[[[(1S,2R)-3-[(2S)-4-[(3,4-dimethoxylphenyl)methyl]-2-[[(1,1-dimethylethyl)amino]carbonyl]-1-piperazinyl]-2-hydroxy-1-(phenylmethyl)propyl]amino]carbonyl]-2-methylpropyl]carbamate] are 0.017 µM, 18.3 µM and 62%.
In the case of `Cc1nc(COC(=O)N[C@H](C(=O)N[C@@H](Cc2ccccc2)[C@H](O)CN2CCN(Cc3ccc4c(c3)OCO4)C[C@H]2C(=O)NC(C)(C)C)C(C)C)cs1` [Example 15, 2-Methyl-4-thiazolylmethyl-[(1S)-1-[[[(1S,2R)-3-[(2S)-4-(1,3-benzodioxol-5-ylmethyl)-2-[[(1,1-dimethylethyl)amino]carbonyl]-1-piperazinyl]-2-hydroxy-1-(phenylmethyl)propyl]amino]carbonyl]-2-methylpropyl]carbamate], the half-maximal effective concentration (EC50) with HIV is 0.011 µM. For the same molecule, the CC50 with MT4 cells was determined as 53.1 µM. Further, the “% Inhib. (0.5 nM)” value at HIV-1 protease was determined as 45%.
`COc1ccc(CN2CCN(C[C@@H](O)[C@H](Cc3ccccc3)NC(=O)[C@@H](NC(=O)OCc3csc(C)n3)C(C)C)[C@H](C(=O)NC(C)(C)C)C2)cc1OC` [Example 16, 2-Methyl-4-thiazolylmethyl-[(1S)-1-[[[(1S,2R)-3-[(2S)-4-[(3,4-dimethoxylphenyl)methyl]-2-[[(1,1-dimethylethyl)amino]carbonyl]-1-piperazinyl]-2-hydroxy-1-(phenylmethyl)propyl]amino]carbonyl]-2-methylpropyl]carbamate]: the EC50 in the series with HIV was 0.01 µM. Further, it took 61.7 µM to reach half-maximal cytotoxicity with MT4 cells (CC50). In addition, at HIV-1 protease, the “% Inhib. (0.5 nM)” value is reported as 49%.
As to `Cc1nc(COC(=O)N[C@H](C(=O)N[C@@H](Cc2ccccc2)[C@H](O)CN2CCN(Cc3ccc(F)cc3)C[C@H]2C(=O)NC(C)(C)C)C(C)C)cs1` [Example 17, 2-Methyl-4-thiazolylmethyl-[(1S)-1-[[[(1S,2R)-3-[(2S)-2-[[(1,1-dimethylethyl)amino]carbonyl]-4-[(4-fluorophenyl)methyl]-1-piperazinyl]-2-hydroxy-1-(phenylmethyl)propyl]amino]carbonyl]-2-methylpropyl]carbamate], the EC50 in the series on HIV stood at 0.011 µM. Moreover, half-maximal cytotoxicity with MT4 cells (CC50) was put at 39.2 µM. For the same molecule, the “% Inhib. (0.5 nM)” value on HIV-1 protease worked out at 50%.
Regarding `CCc1nc(COC(=O)N[C@H](C(=O)N[C@@H](Cc2ccccc2)[C@H](O)CN2CCN(Cc3ccc(OC)c(OC)c3)C[C@H]2C(=O)NC(C)(C)C)C(C)C)cs1` [Example 18], the EC50 with HIV came to 0.019 µM. In addition, the midpoint of cytotoxicity with MT4 cells, the CC50, lay at 44.6 µM. The “% Inhib. (0.5 nM)” value on HIV-1 protease stood at 82%.
